Drawing on PMC10216731 (2023), this text covers binding and Kb for 6 compounds.

For assay [1], the system named is aptamer for AMP (Apt) (DNA, aptamer) GCGGGCGGTTGTATAGCGG
The experiment in a line: fluorescence recovery by release of TPE-Am. As to conditions: 99% PBS (PBS:DMSO), pH 7.4, 25 °C, aptamer 500 nM.

The test system is the same in assay [2]. Briefly: fluorescence quenching of TPE-Am, lg[(F0-F)/F] against lg[Q] plot. Particulars: Na+, K+ from 10 mM PBS (Na2HPO4, KH2PO4, NaCl, KCl); individual cation concentrations not given; 305 K; PBS:DMSO 99% PBS; TPE-Am aggregated; also measured at 287 and 318 K; apparent.
[3] abbreviates: TPE-Am displacement, highest tested 100 nM.

Structures are written as SMILES.

For the compound `CC1(C)S[C@@H]2[C@H](NC(=O)[C@H](N)c3ccccc3)C(=O)N2[C@H]1C(=O)O`, the binding entry in assay [1] (TPE-Am 1 μM displaced, 10 nM AMP) was “yes”.
Consider `Nc1ccc(C(=C(c2ccccc2)c2ccccc2)c2ccccc2)cc1`, for which the Kb in assay [2] was determined as 626000 L/mol.
With `O=C(N[C@H](CO)[C@H](O)c1ccc([N+](=O)[O-])cc1)C(Cl)Cl`, the binding entry in assay [1] (setting [3]) was “no”.
The same measure, in the same setting: the value for `CN(C)[C@@H]1C(=O)C(C(N)=O)=C(O)[C@@]2(O)C(=O)C3=C(O)c4c(O)cccc4[C@@](C)(O)[C@H]3C[C@@H]12` was “no”; that for `CC[C@H]1OC(=O)[C@H](C)[C@@H](O[C@H]2C[C@@](C)(OC)[C@@H](O)[C@H](C)O2)[C@H](C)[C@@H](O[C@@H]2O[C@H](C)C[C@H](N(C)C)[C@H]2O)[C@](C)(O)C[C@@H](C)/C(=N\OCOCCOC)[C@H](C)[C@@H](O)[C@]1(C)O` was “no”; that for `O=[N+]([O-])N=C1NCCN1Cc1ccc(Cl)nc1` was “no”.
